Experimental findings from publication PMC7143582, “Functional Characterization of Sex Pheromone Receptors in the Fall Armyworm (Spodoptera frugiperda)” (Insects, 2020) are described below.

Structures are written as SMILES.

One assay deals with T1, SfruOR13.
T1 construct: gene OR13; full-length ORF; with SfruORco
The assay can be described thus: two-electrode voltage clamp, Xenopus oocytes co-expressing SfruOR13/ORco, dose-response. Format: cell-based, Spodoptera frugiperda.

For another assay, the system named is T2, SfruOR16.
T2 construct: gene OR16; full-length ORF; with SfruORco
The assay can be described thus: two-electrode voltage clamp, Xenopus oocytes co-expressing SfruOR16/ORco, dose-response. Format: cell-based, Spodoptera frugiperda. Background: Two-electrode voltage clamp is typically applied to oocytes expressing channels or transporters.

On to `CCCC/C=C\CCCCCCCCOC(C)=O` [Z9-14:OAc], for which the EC50 in the assay with SfruOR13 is 6.08 µM.
In the assay with SfruOR16, `CCCC/C=C\CCCCCCCCO` [Z9-14:OH, (Z)-9-tetradecen-1-ol] had an EC50 of 16.9 µM.

The term EC50 denotes the concentration needed to bring the measured effect to its halfway point. Read a low EC50 as a more potent agent.
